The text below walks through data of patent publication US10165778B2, “Method for controlling pests in soybean” (BASF SE, priority 2014, dated 2019).

Holding throughout (type): in vivo
For series [1], the system named is Brown Stink Bug (Euschistus heros). As to the kind of experiment: B.6 sprayed soybean seedlings (Intacta and BMX-Potencia), adults. Particulars: for mortality at 10 ppm: Euschistus heros; for mortality at 10 ppm / mortality (%) 1 D.A.A / mortality (%) 2 DAA / mortality (%) 6 DAA / mortality (Abbott %) 1 D.A.A / mortality (Abbott %) 2 DAA / mortality (Abbott %) 6 DAA: Ginkgolide A 100 ppm a.i, Bilobalide 10 ppm a.i; for efficacy on soybean plants with Bacillus thuringiensis toxin trait (INTACTA) versus without (BMX-POTENCIA): comparison of INTACTA with BMX-POTENCIA
As for the experimental part:
B.6 Brown Stink Bug (Euschistus heros)
(§1) The active compound is dissolved at the desired concentration in a mixture of 1:1 (vol:vol) distilled water:acetone.
Soybean seedlings of Intacta and BMX-Potencia with one pair of true leaves were sprayed with 2 ml solution using an airbrush. After dry, the plants in small pots were placed inside a transparent plastic cage and infested with 10 adults adult stage individuals. Treated cups were kept at about 25° C. Percent mortality was recorded after 1, 2, and 6 days after application.
• Corrected mortality according to Abbott, W. S., A method of computing the effectiveness of an insecticide, J. Econ. Entomal., 18 (1925) 265-267.

The test system of series [2] is Forest Shield Bug (Eysarcoris aeneus). In words: B.4 peanut and soybean seed spray test, adults. Particulars: 120 h, read-out: mortality in comparison with untreated controls. On the procedure:
B.4 Forest Shield Bug (Eysarcoris aeneus)
as §1
Row peanuts and soybean seeds were placed in a plastic cup and inoculated with ten adult stage individuals. Insects, food and inside of container are sprayed with 1 ml solution using an air brush. After drying, a water supply source will be placed in the cup and the cup closed with a screened lid. Treated cups were kept at about 20° C. Percent mortality was recorded after 5 days.

The subject of series [3] is Green Soldier Stink Bug (Nezara viridula). As to the kind of experiment: B.7 soil drench on lima bean plants, 2nd instar nymphs. Particulars: read-out: mortality in comparison with untreated controls. As for the experimental part:
B.7 Green Soldier Stink Bug (Nezara viridula)
Lima Bean (Phaseolus lunatus, ‘Henderson Bush,’ Lot #—VR06650) plants were transplanted at the two true-leaf stage into 25.8 cm^2 pots filled with sifted (No. 10 sieve) North Carolina loamy sand soil. Pots were held in the greenhouse and watered daily until treatment. Three days after transplant, the compounds were dissolved in acetone and then diluted with water for a final concentration of 50% acetone. Treatments were applied as a drench in 1 ml solution per plant. Plants were held in an environmental chamber (25±2° C., 24 L) and watered as needed for the duration of the test.
Three days after treatment, plants were infested with five 2nd instar nymphs. Plants were covered with organza fabric bags to prevent escape. Four days after infestation, the number of live nymphs on each plant was recorded, and means were calculated for each treatment. The percent control was calculated as the percent mortality relative to the solvent blank.

For series [4] the test system is unchanged. As to the kind of experiment: B.1 soybean pod spray test, 3rd instar nymphs. Particulars: 120 h, read-out: mortality in comparison with untreated controls. As for the experimental part:
B.1 Green Soldier Stink Bug (Nezara viridula)
The active compound is dissolved at the desired concentration in a mixture of 1:1 (vol:vol) distilled water:acetone. Surfactant (Kinetic HV) is added at a rate of 0.01% (vol/vol). The test solution is prepared at the day of use.
Soybean pods were placed in microwavable plastic cups lined with moist filter paper and inoculated with ten 3rd instar N. viridula. Using a hand atomizer, approximately 2 ml solution is sprayed into each cup. Treated cups were kept at about 28-29° C. and relative humidity of about 50-60%. Percent mortality was recorded after 5 days.

For series [5], the system named is Rice Leaf Bug (Trigonotylus caelestialium). As to the kind of experiment: B.5 sprayed wheat seedling test, 2nd and 3rd stage nymphs. Particulars: 120 h, read-out: mortality in comparison with untreated controls. On the procedure:
B.5 Rice Leaf Bug (Trigonotylus caelestialium)
as §1
Small wheat seedlings in glass tubes were sprayed with 200 microliter/tube by air brush. After drying, ten 2nd and 3rd nymph stage individuals were released in the tube and the tube closed with a screened lid. Treated cups were kept at about 20° C. Percent mortality was recorded after 5 days.

In series [6] the test system is Brown Stink Bug (Euschistus heros). As to the kind of experiment: B.3 bean pod spray test, adults. As to conditions: 120 h, read-out: mortality in comparison with untreated controls. On the procedure:
B.3 Brown Stink Bug (Euschistus heros)
as §1
Fresh bean pods were placed in a transparent plastic cup and inoculated with ten adult stage individuals. Insects, food and inside of container are sprayed with 1 ml solution using an air brush. Treated cups were kept at about 25° C. Percent mortality was recorded after 5 days.

Series [7] relates to Orchid Thrips (Dichromothrips corbetti). In words: B.2 floral-immersion test on orchid petals, adult thrips. As to conditions: 72 h, read-out: mortality in comparison with untreated controls. On the procedure:
B.2 Orchid Thrips (Dichromothrips corbetti)
Dichromothrips corbetti adults used for bioassay were obtained from a colony maintained continuously under laboratory conditions. For testing purposes, the test compound is diluted in a 1:1 mixture of acetone:water (vol:vol), plus Kinetic HV at a rate of 0.01% v/v.
Thrips potency of each compound was evaluated by using a floral-immersion technique. All petals of individual, intact orchid flowers were dipped into treatment solution and allowed to dry in Petri dishes. Treated petals were placed into individual re-sealable plastic along with about 20 adult thrips. All test arenas were held under continuous light and a temperature of about 28° C. for duration of the assay. After 3 days, the numbers of live thrips were counted on each petal. The percent mortality was recorded 72 hours after treatment.

Series [8] concerns Green Soldier Stink Bug (Nezara viridula). As to the kind of experiment: B.8 lima bean seed treatment, 2nd instar nymphs. Particulars: 0.063 mg ai/seed, infested ten days after treatment, read four days after infestation. As for the experimental part: B.8 Green Soldier Stink Bug (Nezara viridula)
Pots (25.8 cm^2) were filled with a 1:1 mixture of sifted (No. 10 sieve) North Carolina loamy sand soil and play sand. Technical material was dissolved in DMSO in a 20 ml scintillation vial. A total application volume of 25 μl of solution was added to a 20 ml vial, ten lima bean seeds (P. lunatus) were added, and the vial was vortexed for 1 minute. Seeds were allowed to dry and planted at a depth of 2 cm later the same day. One seed was planted per pot. Pots were held in the greenhouse and watered daily until infestation.
Ten days after treatment, plants were infested with five 2nd instar nymphs. Plants were covered with organza fabric bags to prevent escape. Plants were held in an environmental chamber (25±2° C., 24 L) and watered as needed.
Four days after infestation, the number of live nymphs on each plant was recorded, and means were calculated for each treatment. The percent control was calculated as the percent mortality relative to the solvent blank.

Structures are written as SMILES. Read-outs that look alike come from different tables or passages of the source.

By mortality is commonly meant the percentage killed. Consider `CC(C)(C)[C@]1(O)C[C@@H]2OC(=O)C[C@@]23C(=O)O[C@@H]2OC(=O)[C@H](O)[C@]213` [Bilobalide, (3aS,5aR,8aS,9R,10aR)-9-tert-butyl-8,9-dihydroxydihydro-9H-furo[2,3-b]furo[3′,2′;2,3]cyclopenta[1,2-c]furan-2,4,7(3H,8H)-trione], for which the mortality at 10 ppm in series [1] (24 h, read-out: mortality (%) 1 D.A.A, BMX - POTENCIA soybean, 1 day after application) is 5%; in series [1] (24 h, read-out: mortality (%) 1 D.A.A, INTACTA soybean, 1 day after application), 7.5%; in series [1] (24 h, read-out: mortality (Abbott %) 1 D.A.A, BMX - POTENCIA soybean, corrected according to Abbott, 1 day after application) it was 2.6%; in series [1] (24 h, read-out: mortality (Abbott %) 1 D.A.A, INTACTA soybean, corrected according to Abbott, 1 day after application), 2.6%; in series [1] (48 h, read-out: mortality (%) 2 DAA, BMX - POTENCIA soybean, 2 days after application) it was 7.5%; in series [1] (48 h, read-out: mortality (%) 2 DAA, INTACTA soybean, 2 days after application) it was 20%. The mortality at 10 ppm is 2.6% in series [1] (48 h, read-out: mortality (Abbott %) 2 DAA, BMX - POTENCIA soybean, corrected according to Abbott, 2 days after application); 15.8% in series [1] (48 h, read-out: mortality (Abbott %) 2 DAA, INTACTA soybean, corrected according to Abbott, 2 days after application); 60% in series [1] (144 h, read-out: mortality (%) 6 DAA, BMX - POTENCIA soybean, 6 days after application); 72.5% in series [1] (144 h, read-out: mortality (%) 6 DAA, INTACTA soybean, 6 days after application); 50% in series [1] (144 h, read-out: mortality (Abbott %) 6 DAA, BMX - POTENCIA soybean, corrected according to Abbott, 6 days after application); 65.6% in series [1] (144 h, read-out: mortality (Abbott %) 6 DAA, INTACTA soybean, corrected according to Abbott, 6 days after application). Besides, in series [4], the mortality at 10 ppm was no less than 75%. Moreover, the “efficacy on soybean plants with Bacillus thuringiensis toxin trait (INTACTA) versus without (BMX-POTENCIA)” value in series [1] was “higher efficacy”. Also, the mortality at 100 ppm in series [2], in series [4], in series [5] and in series [6] was no less than 75% in each case. Moreover, in series [3], the mortality at 300 g/ha was no less than 75%. For the same compound, in series [4], the mortality at 300 ppm is no less than 75%. Besides, the mortality at 500 ppm in series [4] and in series [7] was no less than 75% throughout.

For the compound `C[C@@H]1C(=O)O[C@H]2C[C@@]34[C@H]5C[C@@H](C(C)(C)C)[C@]36[C@@H](OC(=O)[C@@H]6O)O[C@@]4(C(=O)O5)[C@]21O` [Ginkgolide A], the “mortality (%) 1 D.A.A” value is 10.0% in series [1] (BMX - POTENCIA soybean, 1 day after application) and 12.5% in series [1] (INTACTA soybean, 1 day after application). Besides, the “mortality (%) 2 DAA” value turned out to be 10.0% in series [1] (BMX - POTENCIA soybean, 2 days after application) and 20.0% in series [1] (INTACTA soybean, 2 days after application). Also, the “mortality (%) 6 DAA” value came out at 57.5% in series [1] (BMX - POTENCIA soybean, 6 days after application) and 62.5% in series [1] (INTACTA soybean, 6 days after application). Besides, the “mortality (Abbott %) 1 D.A.A” value in series [1] (BMX - POTENCIA soybean, corrected according to Abbott, 1 day after application) was found to be 7.7%; in series [1] (INTACTA soybean, corrected according to Abbott, 1 day after application), 7.9%. Besides, the “mortality (Abbott %) 2 DAA” value in series [1] (BMX - POTENCIA soybean, corrected according to Abbott, 2 days after application) turned out to be 5.3%; in series [1] (INTACTA soybean, corrected according to Abbott, 2 days after application), 15.8%. Besides, the “mortality (Abbott %) 6 DAA” value in series [1] (BMX - POTENCIA soybean, corrected according to Abbott, 6 days after application) was found to be 46.9%; in series [1] (INTACTA soybean, corrected according to Abbott, 6 days after application) it was 53.1%. In addition, the “efficacy on soybean plants with Bacillus thuringiensis toxin trait (INTACTA) versus without (BMX-POTENCIA)” value in series [1] is reported as “higher efficacy”. In series [8], the “mortality in comparison with untreated controls” value was “at least 75%”.
